In one experiment the target is human TPH1 (Homo sapiens (Human), UniProt P17752). Kind of experiment: Biochemical in vitro assay using fluorescence readout (TPH1 inhibition). The settings on record: full length human TPH1, 40 μM L-tryptophan, 15° C., 60 minutes, fluorescence at 540 nm; mean if determined several times.
Sequence of human TPH1 (P17752 whole entry): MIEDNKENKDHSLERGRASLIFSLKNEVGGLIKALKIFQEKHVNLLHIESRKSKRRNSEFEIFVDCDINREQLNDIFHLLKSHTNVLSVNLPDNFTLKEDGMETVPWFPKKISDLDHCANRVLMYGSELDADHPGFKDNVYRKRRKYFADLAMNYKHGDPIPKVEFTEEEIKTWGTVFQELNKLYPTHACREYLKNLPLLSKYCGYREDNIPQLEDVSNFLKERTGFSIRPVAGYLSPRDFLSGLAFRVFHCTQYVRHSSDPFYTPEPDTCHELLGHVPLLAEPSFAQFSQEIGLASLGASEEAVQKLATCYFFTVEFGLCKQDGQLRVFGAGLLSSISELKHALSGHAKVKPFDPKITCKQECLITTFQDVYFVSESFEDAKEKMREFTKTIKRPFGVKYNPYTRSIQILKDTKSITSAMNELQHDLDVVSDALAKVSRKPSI
One may read the IC50 as the concentration needed to halve the response being measured. The molecule `CNC(=O)c1csc(C2c3c(nc4sc(C)nn34)CCN2C(=O)COc2ccc(C(F)(F)F)cc2Cl)n1` (stereo not shown) [Example 1.44.1, 2-(6-(2-(2-Chloro-4-(trifluoromethyl)phenoxy)acetyl)-2-methyl-5,6,7,8-tetrahydro-[1,3,4]thiadiazolo[2′,3′:2,3]imidazo[4,5-c]pyridin-5-yl)-N-methylthiazole-4-carboxamide] returned an IC50 of 311 nM. `Cc1nn2c3c(nc2s1)CCN(C(=O)COc1ccc(NS(=O)(=O)C2CC2)cc1Cl)C3c1ccc(Cl)cc1F` (stereo not shown) [Example 1.4.30, N-(3-Chloro-4-(2-(5-(4-chloro-2-fluorophenyl)-2-methyl-7,8-dihydro-[1,3,4]thiadiazolo[2′,3′:2,3]imidazo[4,5-c]pyridin-6(5H)-yl)-2-oxoethoxy)phenyl)cyclo-propanesulfonamide] yielded an IC50 of 10 nM. `CONC(=O)c1ccc(OCC(=O)N2CCc3nc4sc(C)nn4c3C2c2ccc(Cl)cc2F)c(Cl)n1` (stereo not shown) [Example 1.4.41, 6-Chloro-5-(2-(5-(4-chloro-2-fluorophenyl)-2-methyl-7,8-dihydro-[1,3,4]thiadiazolo[2′,3′:2,3]imidazo[4,5-c]pyridin-6(5H)-yl)-2-oxoethoxy)-N-methoxypicolinamide] returned an IC50 of 6 nM. For `Cc1nn2c3c(nc2s1)CCN(C(=O)COc1ccc(N2CCOCC2)nc1Cl)C3c1sc(-c2nnn[nH]2)cc1F` (stereo not shown) [Example 1.70.1, 2-((2-Chloro-6-morpholinopyridin-3-yl)oxy)-1-(5-(3-fluoro-5-(1H-tetrazol-5-yl)thiophen-2-yl)-2-methyl-7,8-dihydro-[1,3,4]thiadiazolo[2′,3′:2,3]imidazo-[4,5-c]pyridin-6(5H)-yl)ethanone], half-maximal inhibition (IC50) was put at 13 nM. In turn, `CNC(=O)c1csc(C2c3c(nc4sc(C)nn34)CCN2C(=O)COc2ccc(N3CCOCC3)nc2Cl)n1` (stereo not shown) [Example 1.44.2, 2-(6-(2-((2-Chloro-6-morpholinopyridin-3-yl)oxy)acetyl)-2-methyl-5,6,7,8-tetrahydro-[1,3,4]thiadiazolo[2′,3′:2,3]imidazo[4,5-c]pyridin-5-yl)-N-methylthiazole-4-carboxamide] returned an IC50 of 5 nM.

The same experiment, now with this note: human TPH1, fluorescence readout.
For the molecule `CNC(=O)c1cc(F)c(C2c3c(nc4sc(C)nn34)CCN2C(=O)COc2ccc(N3CCOCC3)nc2Cl)s1` (stereo not shown) [Example 1.25.1, 5-(6-(2-((2-chloro-6-morpholinopyridin-3-yl)oxy)acetyl)-2-methyl-5,6,7,8-tetrahydro-[1,3,4]thiadiazolo[2′,3′:2,3]imidazo[4,5-c]pyridin-5-yl)-4-fluoro-N-methylthiophene-2-carboxamide], 5 nM corresponded to half-maximal inhibition (IC50).

In turn, `Cc1nn2c3c(nc2s1)CCN(C(=O)COc1ccc(C#N)nc1Cl)C3c1ccc(Cl)nc1F` (stereo not shown) [Example 1.16.5, 6-chloro-5-(2-(5-(6-chloro-2-fluoropyridin-3-yl)-2-methyl-7,8-dihydro-[1,3,4]thiadiazolo[2′,3′:2,3]imidazo[4,5-c]pyridin-6(5H)-yl)-2-oxoethoxy)picolinonitrile] gave an IC50 of 35 nM. The molecule `O=C(COc1ccc(C(F)(F)F)cc1Cl)N1CCc2nc3sccn3c2C1c1cnn(-c2ccccc2)c1` (stereo not shown) [Example 6.13.8, 2-(2-chloro-4-(trifluoromethyl)phenoxy)-1-(5-(1-phenyl-1H-pyrazol-4-yl)-7,8-dihydrothiazolo[2′,3′:2,3]-imidazo[4,5-c]pyridin-6(5H)-yl)ethanone] had an IC50 of 80 nM. Take `CCc1nc(N2CCCS2(=O)=O)ccc1OCC(=O)N1CCc2nc3sc(C(F)F)nn3c2C1c1sc(C)nc1C` (stereo not shown) [Example 8.3.2, 1-(2-(difluoromethyl)-5-(2,4-dimethylthiazol-5-yl)-7,8-dihydro-[1,3,4]thiadiazolo[2′,3′:2,3]imidazo[4,5-c]pyridin-6(5H)-yl)-2-((6-(1,1-dioxidoisothiazolidin-2-yl)-2-ethylpyridin-3-yl)oxy)ethanone]: it took 13 nM to reach half-maximal inhibition (IC50). The molecule `COc1ccc(C2c3c(nc4sccn34)CCN2C(=O)COc2ccc3ccccc3c2)cc1OC` (stereo not shown) [Example 6.1.1, 1-(5-(3,4-dimethoxyphenyl)-7,8-dihydrothiazolo-[2′,3′:2,3]imidazo[4,5-c]pyridin-6(5H)-yl)-2-(naphthalen-2-yloxy)ethanone] had an IC50 of 4 nM. The molecule `Cc1ccccc1OCC(=O)N1CCc2nc3sccn3c2C1c1cnn(-c2ccccc2)c1` (stereo not shown) [Example 6.13.4, 1-(5-(1-phenyl-1H-pyrazol-4-yl)-7,8-dihydrothiazolo-[2′,3′:2,3]imidazo[4,5-c]pyridin-6(5H)-yl)-2-(o-tolyl-oxy)ethanone] registered a half-maximal inhibitory concentration (IC50) of 236 nM.

Molecule `Cc1nn2c3c(nc2s1)CCN(C(=O)COc1cnc(C(F)(F)F)nc1Cl)C3c1ccc(Cl)cc1F` (stereo not shown) [Example 1.4.36, 2-((4-chloro-2-(trifluoromethyl)pyrimidin-5-yl)oxy)-1-(5-(4-chloro-2-fluorophenyl)-2-methyl-7,8-dihydro-[1,3,4]thiadiazolo[2′,3′:2,3]imidazo[4,5-c]pyridin-6(5H)-yl)ethanone] displayed an IC50 of 38 nM.

Turning to `CCc1nc(C)ccc1OCC(=O)N1CCc2nc3sccn3c2C1c1ccc(C(F)(F)F)nc1C` (stereo not shown) [Example 6.17.1, 2-((2-ethyl-6-methylpyridin-3-yl)oxy)-1-(5-(2-methyl-6-(trifluoromethyl)pyridin-3-yl)-7,8-dihydrothiazolo-[2′,3′:2,3]imidazo[4,5-c]pyridin-6(5H)-yl)ethanone], 194 nM corresponded to half-maximal inhibition (IC50). Molecule `CCc1nc(NS(C)(=O)=O)ccc1OCC(=O)N1CCc2nc3sc(C)nn3c2C1c1ccc(C)c(F)c1F` (stereo not shown) [Example 1.61.5, N-(5-(2-(5-(2,3-difluoro-4-methylphenyl)-2-methyl-7,8-dihydro-[1,3,4]thiadiazolo[2′,3′:2,3]imidazo[4,5-c]pyridin-6(5H)-yl)-2-oxoethoxy)-6-ethylpyridin-2-yl)methanesulfonamide] displayed an IC50 of 9 nM. Same read-out and setting: in the case of `Cc1nn2c3c(nc2s1)CCN(C(=O)COc1ccc(N2CCOCC2)cc1Cl)C3c1ccc(Cl)cc1F` (stereo not shown) [Example 1.4.3, 1-(5-(4-chloro-2-fluorophenyl)-2-methyl-7,8-dihydro-[1,3,4]thiadiazolo[2′,3′:2,3]imidazo[4,5-c]pyridin-6(5H)-yl)-2-(2-chloro-4-morpholinophenoxy)ethanone] it was 4 nM; in that of `CCc1nc(C)ccc1OCC(=O)N1CCc2nc3sc(C)nn3c2C1c1ccc(Cl)cc1F` (stereo not shown) [Example 1.4.2, 1-(5-(4-chloro-2-fluorophenyl)-2-methyl-7,8-dihydro-[1,3,4]thiadiazolo[2′,3′:2,3]imidazo[4,5-c]pyridin-6(5H)-yl)-2-((2-ethyl-6-methylpyridin-3-yl)oxy)ethanone], 13 nM.

The molecule `COC(=O)c1cnc(C2c3c(nc4sc(C)nn34)CCN2C(=O)COc2ccc(N3CCOCC3)nc2Cl)s1` (stereo not shown) [Example 1.28.1, Methyl 2-(6-(2-((2-chloro-6-morpholinopyridin-3-yl)oxy)acetyl)-2-methyl-5,6,7,8-tetrahydro-[1,3,4]thiadiazolo [2′,3′:2,3]imidazo[4,5-c]pyridin-5-yl)thiazole-5-carboxylate] displayed an IC50 of 7 nM.

Regarding `Cc1nn2c3c(nc2s1)CCN(C(=O)COc1ccc(N2CCOCC2)nc1Cl)C3c1scnc1C` (stereo not shown) [Example 1.32.1, 2-((2-chloro-6-morpholinopyridin-3-yl)oxy)-1-(2-methyl-5-(4-methylthiazol-5-yl)-7,8-dihydro-[1,3,4]thiadiazolo [2′,3′:2,3]imidazo[4,5-c]pyridin-6(5H)-yl)ethanone], the IC50 was found to be 2 nM.

With `CNc1ccc(OCC(=O)N2CCc3nc4sc(C)nn4c3C2c2ccc(Cl)nc2F)c(Cl)n1` (stereo not shown) [Example 1.16.3, 1-(5-(6-chloro-2-fluoropyridin-3-yl)-2-methyl-7,8-dihydro-[1,3,4]thiadiazolo[2′,3′:2,3]imidazo[4,5-c]pyridin-6(5H)-yl)-2-((2-chloro-6-(methylamino)pyridin-3-yl)oxy)ethanone], the concentration for half-maximal inhibition (IC50) was found to be 8 nM. `CCOC(=O)c1csc(C2c3c(nc4sc(C)nn34)CCN2C(=O)COc2ccc(C(F)(F)F)cc2Cl)n1` (stereo not shown) [Example 1.27.3, ethyl 2-(6-(2-(2-chloro-4-(trifluoromethyl)phenoxy)acetyl)-2-methyl-5,6,7,8-tetrahydro-[1,3,4]thiadiazolo[2′,3′:2,3]imidazo[4,5-c]pyridin-5-yl)thiazole-4-carboxylate] showed an IC50 of 245 nM. In the case of `CCc1nc(NS(C)(=O)=O)ccc1OCC(=O)N1CCc2nc3sc(C(F)(F)F)nn3c2C1c1ccc(C)cc1F` (stereo not shown) [Example 5.3.1, N-(6-ethyl-5-(2-(5-(2-fluoro-4-methylphenyl)-2-(trifluoromethyl)-7,8-dihydro-[1,3,4]thiadiazolo[2′,3′:2,3]imidazo[4,5-c]pyridin-6(5H)-yl)-2-oxoethoxy)pyridin-2-yl)methanesulfonamide], the IC50 worked out at 28 nM. Consider `CCOC(=O)c1csc(C2c3c(nc4sc(C)nn34)CCN2C(=O)COc2ccc(N3CCOCC3)nc2Cl)n1` (stereo not shown) [Example 1.27.1, ethyl 2-(6-(2-((2-chloro-6-morpholinopyridin-3-yl)oxy)acetyl)-2-methyl-5,6,7,8-tetrahydro-[1,3,4]thiadiazolo[2′,3′:2,3]imidazo[4,5-c]pyridin-5-yl)thiazole-4-carboxylate], for which the IC50 was 7 nM. Still for that read-out and setting: in the case of `Cc1nn2c3c(nc2s1)CCN(C(=O)COc1ccc(NS(=O)(=O)N(C)C)nc1Cl)C3c1ccc(Cl)cc1F` (stereo not shown) [Example 1.4.50, N-(6-chloro-5-(2-(5-(4-chloro-2-fluorophenyl)-2-methyl-7,8-dihydro-[1,3,4]thiadiazolo[2′,3′:2,3]imidazo[4,5-c]pyridin-6(5H)-yl)-2-oxoethoxy)pyridin-2-yl)-N′,N′-dimethyl-sulfamide] it was 78 nM; in that of `Cc1nn2c3c(nc2s1)CCN(C(=O)COc1ccc(NS(C)(=O)=O)nc1Cl)C3c1ccc(Cl)cc1F` (stereo not shown) [Example 1.4.39, N-(6-chloro-5-(2-(5-(4-chloro-2-fluorophenyl)-2-methyl-7,8-dihydro-[1,3,4]thiadiazolo[2′,3′:2,3]imidazo[4,5-c]pyridin-6(5H)-yl)-2-oxoethoxy)pyridin-2-yl)methanesulfonamide], 5 nM; in that of `CCc1nc(C(=O)NC2CC2)ccc1OCC(=O)N1CCc2nc3sc(C)nn3c2C1c1sccc1F` (stereo not shown) [Example 1.71.1, N-cyclopropyl-6-ethyl-5-(2-(5-(3-fluorothiophen-2-yl)-2-methyl-7,8-dihydro-[1,3,4]thiadiazolo[2′,3′:2,3]-imidazo[4,5-c]pyridin-6(5H)-yl)-2-oxoethoxy)picolinamide], 12 nM.

Values taken from patent US9765092B2, “Tricyclic piperidine compounds” (ACTELION PHARMACEUTICALS LTD, priority 2013, dated 2017).
